In patent US8614178B2, “Pharmaceutical composition for treatment of dry eye syndrome” (Novaliq GmbH, priority 2009, dated 2013):
Read-outs that look alike come from different tables or passages of the source.

Key:
[1] = Refractive index determination; conditions: neat SFA
[2] = tested on: Sjögren syndrome patients; conditions: oral, clinical studies; cited from earlier work
[3] = Droplet size (weight and volume) from three droppers; type: physicochemical; conditions: 25° C.; for Droplet volume: calculated; for Droplet weight: mean ± SD
Protocol: The droplet size of selected SFA's in terms of weight and volume of droplets from three droppers was determined and compared to that of purified water. The devices used for dispensing the droplets were (a) a 2 mL Pasteur pipette (wall thickness 0.53 mm; external tip diameter: 1.50 mm; length: 150 mm) made of glass, (b) a 20 G (0.9 mm×50 mm) injection needle, and (c) a dropper from a commercial eye drops product (Hylo-Vision). The droplet weights were measured at 25° C. using a laboratory balance; the volumes were calculated. Each test was performed 10 times.

rabbit eyes [4] = tested on: rabbit eyes
Protocol: (§1) The eyes were fastened in chambers coupled micropump systems which continuously supplied the eyes with cultivation medium (Minimal Essential Medium, MEM T031-05) without fetal calf serum. The vitality of the eyes was monitored by regularly measuring the concentration of lactate and glucose in the chamber eluate. The corneal surface of the eyes was damaged by abrasion, using a dental ceramic abrasive (638XF, Meisinger). For each eye, four lesions of 3.0 to 4.5 mm^2 were prepared.
(§2) To evaluate the effect of F4H5 and F4H5 with 1 wt.-% ethanol on the cornea, an amount of approx. 0.25 to 0.50 μl of the respective test substance was dropped onto the centre of a cornea once every hour over a period of 12 hours, followed by a 12 hour resting period in which the cornea was submersed in culture medium to simulate a closed lid during a night phase. In addition, an aqueous solution of hyaluronic acid (0.1 wt.-%) was used as reference (hyaluronic acid is know to enhance the restoration of the corneal surface after damage), culture medium was used as control, and aqueous benzalkonium chloride solution (0.01 wt.-%) was used as negative control. Each test was performed over a period of 3 days. The effects were observed by optical coherence tomography (OCT), by digitally determining the dimensions of the lesions after staining with fluorescein, and finally by a histological evaluation of the corneal epithelium and endothelium at the end of each experiment.
(§3) Each of the two vehicles was tested in two separate runs.

rabbit eyes [5] = experiment: Ex-vivo eye irritation test (EVEIT), abraded cornea
Protocol: as §1, §2, §3

Question: For `CCCCC(F)(F)C(F)(F)C(F)(F)C(F)(F)F` [Example F4H4], which Refractive index [1] is on record?
Answer: 1.308

Question: Which “Effect on DED symptoms” value [2] does the source give for `CC[C@@H]1C(=O)OC[C@@H]1Cc1cncn1C` [pilocarpine] here?
Answer: significantly improved DED symptoms

Question: With `CCC(F)(F)C(F)(F)C(F)(F)C(F)(F)C(F)(F)C(F)(F)F` [Example F6H2] as the compound, how does the Refractive index [1] read?
Answer: 1.295

Question: Which Refractive index [1] does the source give for `CCCCCCC(F)(F)C(F)(F)C(F)(F)C(F)(F)C(F)(F)C(F)(F)F` [Example F6H6] here?
Answer: 1.3224

Question: Which Refractive index [1] does the source give for `CCCCCCCCCC(F)(F)C(F)(F)C(F)(F)C(F)(F)C(F)(F)C(F)(F)F` [Example F6H9] here?
Answer: 1.3494

Question: With `CCCCCCCC(F)(F)C(F)(F)C(F)(F)C(F)(F)C(F)(F)C(F)(F)F` [Example F6H7] as the compound, how does the Refractive index [1] read?
Answer: 1.3366

Question: Which Droplet volume ([3]; Eye dropper (Hylo-Vision)) does the source give for `O` [Water, water, reference compound] here?
Answer: 36.1 ± 2.2 µL

Question: And the Droplet weight ([3]; Eye dropper (Hylo-Vision))?
Answer: 36.0 ± 2.2 mg

Question: And the Droplet volume ([3]; Glass pipette)?
Answer: 31.3 ± 1.4 µL

Question: What about the Droplet weight ([3]; Glass pipette, 10 tests) of the same compound?
Answer: 31.2 ± 1.4 mg

Question: And the Droplet volume ([3]; Injection needle 20 G)?
Answer: 11.1 ± 0.9 µL

Question: And the Droplet weight ([3]; Injection needle 20 G)?
Answer: 11.0 ± 0.9 mg

Question: With `CC1OC2(CS1)CN1CCC2CC1` (stereo not shown) [Cevimeline] as the compound, how does the “Effect on DED symptoms” value [2] read?
Answer: effective in the management of symptoms associated with keratoconjunctivitis sicca of the Sjögren type

Question: Which Refractive index [1] does the source give for `CCCCCCC(F)(F)C(F)(F)C(F)(F)C(F)(F)F` [Example F4H6] here?
Answer: 1.334

Question: For `CCCCCCCCC(F)(F)C(F)(F)C(F)(F)C(F)(F)C(F)(F)C(F)(F)F` [Example F6H8], which “Healing of corneal lesions” value (rabbit eyes [4]) is on record?
Answer: all lesions healed fully during the experimental time

Question: What about the Droplet volume ([3]; Eye dropper (Hylo-Vision)) of the same compound?
Answer: 10.3 ± 0.3 µL

Question: And the Droplet weight ([3]; Eye dropper (Hylo-Vision))?
Answer: 13.7 ± 0.4 mg

Question: And the Droplet volume ([3]; Glass pipette)?
Answer: 5.0 ± 0.4 µL

Question: And the Droplet weight ([3]; Glass pipette, 10 tests)?
Answer: 6.6 ± 0.6 mg

Question: And the Droplet volume ([3]; Injection needle 20 G)?
Answer: 2.5 ± 0.1 µL

Question: What about the Droplet weight ([3]; Injection needle 20 G) of the same compound?
Answer: 3.4 ± 0.2 mg

Question: And the Refractive index [1]?
Answer: 1.3432

Question: With `CCCCCCCCC(F)(F)C(F)(F)C(F)(F)C(F)(F)F` [Example F4H8] as the compound, how does the Refractive index [1] read?
Answer: 1.348

Question: For `CCCCC(F)(F)C(F)(F)C(F)(F)C(F)(F)C(F)(F)C(F)(F)F` [Example F6H4], which Refractive index [1] is on record?
Answer: 1.306

Question: For `CCCCCCCC(F)(F)C(F)(F)C(F)(F)C(F)(F)F` [Example F4H7], which Refractive index [1] is on record?
Answer: 1.3357

Question: Which Droplet volume ([3]; Eye dropper (Hylo-Vision)) does the source give for `CCCCCC(F)(F)C(F)(F)C(F)(F)C(F)(F)F` [Example F4H5] here?
Answer: 9.6 ± 0.2 µL

Question: What about the Droplet weight ([3]; Eye dropper (Hylo-Vision)) of the same compound?
Answer: 12.4 ± 0.2 mg

Question: What about the Droplet volume ([3]; Glass pipette) of the same compound?
Answer: 4.7 ± 0.3 µL

Question: What about the Droplet weight ([3]; Glass pipette, 10 tests) of the same compound?
Answer: 6.0 ± 0.4 mg

Question: What about the Droplet volume ([3]; Injection needle 20 G) of the same compound?
Answer: 2.0 ± 0.3 µL

Question: What about the Droplet weight ([3]; Injection needle 20 G) of the same compound?
Answer: 2.6 ± 0.4 mg

Question: And the “Penetration into the cornea” value (rabbit eyes [5]; OCT imaging)?
Answer: no indication of penetration of F4H5 into the cornea

Question: What about the “Morphological and histological evaluation of cornea” value (rabbit eyes [5]; end of test) of the same compound?
Answer: had not only healed very well, but were also entirely clear at the end of the tests, with healthy and smooth surface morphology

Question: And the Physiological tolerability (rabbit eyes [5]; in words)?
Answer: better tolerated than culture medium

Question: What about the Refractive index [1] of the same compound?
Answer: 1.3204

Question: What does the source list for benzalkonium chloride [BAC]?
Answer: Healing of corneal lesions (rabbit eyes [4]): rapid growth of the lesions eventually leading to a complete disintegration of the corneal epithelium; Morphological and histological evaluation of cornea (rabbit eyes [4]): complete disintegration of the corneal epithelium, but also a major impairment of the complete cornea even including the endothelium
